Data reported in patent US20260265055A1, “Sulfine-Based Compounds for Generating Hydrogen Persulfide” (Brown University, priority 2023, published 2026).

Columns and labels:
[1] = Monitoring H2S2 formation from the TTS-TAGDD hybrid compound 3 (SSP4, 12 h); settings: over 12 hours
Procedure: Monitoring H2S2 formation from the TTS-TAGDD hybrid compound 3: TTS and 3 were prepared as 1 mM solutions in DMSO. L-cysteine and Na2S2 were prepared at 4 mM and 1 mM in MilliQ H2O, respectively. SSP4 was dissolved in DMSO to obtain a 200 μM stock solution. CTAB was dissolved in ethanol to yield a 2 mM stock solution. 50 mM PBS buffer (pH 7.4) was added to individual wells of a black polystyrene, flat-bottomed clear 96-well plate, followed by TTS (25 μM) or 3 (25 μM) then cysteine (100 μM) or Na2S2 (25 μM). Samples were mixed by pipetting up and down and incubated in the dark at room temperature (rt) for 30 min. Next, CTAB (50 μM) was added to all wells followed by SSP4 (5 μM), and samples were mixed by pipetting up and down. Samples were then incubated in the dark at room temperature for another 30 min before being measured on a Molecular Devices SpectraMax iD3 Multi-Mode Microplate Reader (fluorescence mode; kinetics measurement type; emission 535 nm; excitation 485 nm; integration time […], low PMT sensitivity, attenuation 1, read height 1.00 mm; total run time: 12 hours; 25 cycles; interval: 0.5 hours). Data was graphed as a time dependent fluorescence response, with F0 as the SSP4 only condition. The fluorescence of Na2S2 over time was not represented in the line graph presented due to the compound's known instability. Data obtained from the 12 h time point including from Na2S2 was also represented in a bar graph for greater clarity. Results were expressed as mean±SEM (n=3).

GAPDH = target: T1, GAPDH (Oryctolagus cuniculus, UniProt P46406); experiment: GAPDH protein S-persulfidation (SSP4 fluorescence, LC-MS/MS); assay type: biochemical, rabbit; settings: reduced GAPDH 100 μM treated with the reagent only (1 mM)
T1 construct: GAPDH (from rabbit muscle, #G2267, Sigma-Aldrich); purchased Sigma-Aldrich G2267; host or cells: rabbit muscle (tissue-purified)
Procedure: One of the primary functions of H2S2 is to induce protein S-persulfidation. Existing methods treat proteins with Na2S2 directly to obtain the persulfidated proteins. The present disclosure contemplates the use of TTS and H2S to persulfidate proteins as a comparison with Na2S2. GAPDH was used as the protein model and its persulfidation was evaluated by SSP4 using a protocol described in Shieh, M. et al., Shining a light on SSP4: a comprehensive analysis and biological applications for the detection of sulfane sulfurs. Redox Biol. 2022, 56, 102433 and Ni, X. et al., A sweet H2S/H2O2 dual release system and specific protein S-persulfidation mediated by thioglucose/glucose oxidase. J. Am. Chem. Soc. 2021, 143, 13325-13332. Reduced GAPDH (100 μM) was individually treated with 10 eq. of TTS+Na2S or Na2S2, as well as control reagents (TTS or Na2S only). The protein samples were then purified using Zeba Spin Desalting Columns (7K MWCO), diluted (to 10 μM), and treated with SSP4 (5 μM). Fluorescence signals were recorded to reflect persulfidation levels. […] To provide further evidence of persulfidation in the GAPDH system, TTS+Na2S-treated GAPDH was alkylated with HPE-IAM to stabilize the protein persulfides.
216 μL of PBS (50 mM, pH 7.4) was added to 3.9 mg of GAPDH (from rabbit muscle, #G2267, Sigma-Aldrich) to obtain a concentration of 500 μM (MW: 36 kDa). DTT (10 mM in DMSO, 11.35 μL) was added for a final equal concentration with the GAPDH. The solution was incubated in the dark at room temperature for 30 min. Zeba 7K MWCO spin columns were prepared and used according to manufacturer's instructions with 3 PBS washes. Excess reductant was removed by column purification with the Zeba 7K MWCO columns. The resulting reduced protein concentration was determined by the absorbance at 280 nm (εmM=30.4 mM-1 cm-1) using the Nanodrop One Microvolume UV-Vis Spectrophotometer (ThermoFisher Scientific). For controls, reduced GAPDH was treated with NEM (1:5 equiv.) and incubated at rt in the dark for 30 min before excess NEM was removed by the Zeba 7K MWCO columns. Next, the reduced protein was diluted to a final concentration of 100 μM in a final volume of 100 μL and treated with TTS (10 μL of 10 mM in DMSO for a final concentration of 1 mM), Na2S (10 μL of 10 mM in MilliQ H2O for a final concentration of 1 mM), both TTS and Na2S, or Na2S2 (10 μL of 10 mM in MilliQ H2O for a final concentration of 1 mM). For example, if the reduced protein (361 μM) was only to be treated with TTS, 62.3 μL of PBS (50 mM, pH 7.4) would first be added to an Eppendorf tube, followed by 27.7 μL of protein, and followed by 10 μL of TTS. TTS+Na2S and Na2S2 samples were also prepared at the concentrations above without any protein, where PBS (50 mM, pH 7.4) was used in place of the proteins (volume-wise). Samples were incubated at room temperature for 30 min in the dark before being purified by Zeba 7K MWCO columns (three times to ensure proper removal of excess treatment molecules) and quantified by absorbance. […] All samples were then incubated with SSP4 (5 μL of 100 μM in DMSO for a final concentration of 5 μM) in individual wells of a black clear flat bottom 96-well plate. The final volume was 100 μL. For example, if the persulfidated protein (99.5 μM) was to be examined, 84.95 μL of PBS (50 mM, pH 7.4) would first be added to a well, followed by 10.05 μL of protein, and then followed by 5 μL of SSP4. Incubation occurred at room temperature in the dark for 30 min before being measured on the SpectraMax iD3 microplate reader (ex: 485 nm; em: 525 nm).

HeLa cells = experiment: Live cell imaging of H2S2 formation with SSP4; assay type: cell-based; settings: compound only, 30 min
Procedure: HeLa cells were seeded at ~7000 cells/well in a 96-well clear flat-bottomed BioLite plate (ThermoFisher Scientific, #130188) in DMEM/F12 (1:1) (Gibco, Invitrogen, #11330-032) medium supplemented with 10% fetal bovine serum (FBS) at 37° C., 5% CO2 overnight.
Preparation before cell treatment: Na2S and Na2S2 stocks were prepared at 10 mM in sterile 1×PBS. TTS and TT were prepared at 10 mM concentrations in DMSO. They were then diluted to 50 μM concentrations in serum-free Fluorobrite DMEM in individual Eppendorf tubes (0.5% DMSO). Na2S (final concentration=100 μM) was added to the Eppendorf tube containing Fluorobrite DMEM and TTS or TT immediately before being added to the cells. Compounds were mixed by pipetting up and down prior to cell addition.
Cell treatment: Culturing media was aspirated from all wells, and cells were washed twice with 1×PBS. Compounds were added to cells (200 μL/well) and incubated for 30 min at 37° C., 5% CO2. While cells were incubating, SSP4 treatment was prepared by first adding 5 mM CTAB in ethanol to Fluorobrite DMEM followed by 6.125 mM SSP4 in DMSO to final concentrations of 100 μM and 5 μM, respectively, in a tube. The final volume was 5 mL (0.08% DMSO). Compounds were mixed by pipetting up and down prior to cell addition. After incubation, media was aspirated, and cells were washed twice with 1×PBS. SSP4 treatment was added to all wells (100 μL/well), and cells were incubated for 30 min at 37° C., 5% CO2 for 30 min. Media was then aspirated, and cells were washed three times with 1×PBS. Fluorobrite DMEM was added to all wells before imaging on the Keyence All-in-One Fluorescence Microscope (BZ-X810) (excitation: 470/40 nm; emission: 525/50 nm).
As shown in FIGS. 4(A)-(D), HeLa cells were treated with TTS, TTS+H2S, or TT for 30 min before the fluorescent sensor SSP4 was applied to the cells to monitor the formation of H2S2. […] Na2S2 was used as the positive control in this study (FIG. 4D). Other control studies including TT+H2S, H2S only, and SSP4 only were also performed. […] FIG. 4H is a graph of fluorescence intensities of SSP4 staining. Data are mean values ±SEM calculated using ImageJ. (n=9, where three different images were obtained from each of three samples and quantified).

T1 sequence (P46406 whole entry): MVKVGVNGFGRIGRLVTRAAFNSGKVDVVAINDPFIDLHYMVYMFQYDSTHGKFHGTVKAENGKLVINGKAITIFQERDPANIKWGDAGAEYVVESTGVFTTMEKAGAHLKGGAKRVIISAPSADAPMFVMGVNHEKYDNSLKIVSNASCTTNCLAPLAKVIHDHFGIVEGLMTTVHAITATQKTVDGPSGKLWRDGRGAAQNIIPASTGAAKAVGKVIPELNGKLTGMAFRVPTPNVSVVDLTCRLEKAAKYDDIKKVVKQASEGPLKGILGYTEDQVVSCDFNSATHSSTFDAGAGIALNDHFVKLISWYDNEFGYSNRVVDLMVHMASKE

Which results are given for `CC(=O)SC(SC(C)=O)c1cccc(OC(=O)c2ccc(=S=O)sc2)c1` [Compound 3]?
H2S2 formation monitored by SSP4 signals ([1]; 25 μM compound + Cys 100 μM): steady and continuous H2S2 formation; SSP4 fluorescence ([1]; 25 μM compound only): did not give any notable fluorescence

Which “SSP4 fluorescence of persulfidated GAPDH” value (GAPDH) does the source give for `[Na+].[Na+].[S-][S-]` [Na2S2, reference compound] here?
Its value is “strong fluorescence”.

What does the source list for `[Na+].[Na+].[S-2]` [Na2S, reference compound]?
SSP4 fluorescence in HeLa cells (HeLa cells): Obvious fluorescence in these samples was not observed; SSP4 fluorescence of persulfidated GAPDH (GAPDH): did not give any notable fluorescence
